Results from ChEMBL document CHEMBL5331094, “Identification of 2,4,5-trisubstituted-2,4-dihydro-3H-1,2,4-triazol-3-one-based small molecules as selective BRD9 binders” (Eur J Med Chem, 2023).
Blank lines part the entries; values can stand above or below the compound they belong to.

How the values were obtained:
[1] = biological target: T1, Bromodomain-containing protein 9 (Homo sapiens) (UniProt Q9H8M2); test: Binding affinity of GST-tagged BRD9 domain (unknown origin) to histone H4Ac (1 to 21 residues) assessed as residual binding at 10 uM by alphascreen analysis relative to control
T1 sequence (whole entry): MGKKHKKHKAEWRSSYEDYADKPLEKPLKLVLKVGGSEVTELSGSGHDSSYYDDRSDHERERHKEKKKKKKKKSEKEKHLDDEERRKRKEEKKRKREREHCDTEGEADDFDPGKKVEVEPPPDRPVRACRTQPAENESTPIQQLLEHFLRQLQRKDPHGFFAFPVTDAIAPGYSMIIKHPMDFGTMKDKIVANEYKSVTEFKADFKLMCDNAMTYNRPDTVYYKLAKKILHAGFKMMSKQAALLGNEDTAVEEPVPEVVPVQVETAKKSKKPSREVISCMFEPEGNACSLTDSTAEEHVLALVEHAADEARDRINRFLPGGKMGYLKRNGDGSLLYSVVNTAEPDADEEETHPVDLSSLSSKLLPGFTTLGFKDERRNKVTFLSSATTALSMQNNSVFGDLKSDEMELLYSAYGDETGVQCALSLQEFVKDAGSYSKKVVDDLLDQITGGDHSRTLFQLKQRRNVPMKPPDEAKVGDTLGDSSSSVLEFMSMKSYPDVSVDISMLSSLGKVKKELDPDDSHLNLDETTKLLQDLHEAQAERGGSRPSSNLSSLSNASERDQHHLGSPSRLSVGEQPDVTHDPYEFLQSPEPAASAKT

[2] = biological target: T2, Bromodomain-containing protein 9 (Homo sapiens, UniProt Q9H8M2); test: Inhibition of BRD9 (unknown origin) by alpha screen analysis
T2 sequence (Q9H8M2 whole entry): T1 sequence (whole entry)

[3] = biological target: Bromodomain-containing protein 2 (Homo sapiens) (UniProt P25440); test: Binding affinity of recombinant His-tagged BRD2-BD1 (unknown origin) to histone H4Ac (1 to 21 residues) K5/8/12/Ac-Biotin-OH assessed as residual binding at 10 uM incubated for 30 mins by alphascreen analysis relative to control
Bromodomain-containing protein 2 (Homo sapiens), sequence (P25440 whole entry, looked up, the tested form may be a part): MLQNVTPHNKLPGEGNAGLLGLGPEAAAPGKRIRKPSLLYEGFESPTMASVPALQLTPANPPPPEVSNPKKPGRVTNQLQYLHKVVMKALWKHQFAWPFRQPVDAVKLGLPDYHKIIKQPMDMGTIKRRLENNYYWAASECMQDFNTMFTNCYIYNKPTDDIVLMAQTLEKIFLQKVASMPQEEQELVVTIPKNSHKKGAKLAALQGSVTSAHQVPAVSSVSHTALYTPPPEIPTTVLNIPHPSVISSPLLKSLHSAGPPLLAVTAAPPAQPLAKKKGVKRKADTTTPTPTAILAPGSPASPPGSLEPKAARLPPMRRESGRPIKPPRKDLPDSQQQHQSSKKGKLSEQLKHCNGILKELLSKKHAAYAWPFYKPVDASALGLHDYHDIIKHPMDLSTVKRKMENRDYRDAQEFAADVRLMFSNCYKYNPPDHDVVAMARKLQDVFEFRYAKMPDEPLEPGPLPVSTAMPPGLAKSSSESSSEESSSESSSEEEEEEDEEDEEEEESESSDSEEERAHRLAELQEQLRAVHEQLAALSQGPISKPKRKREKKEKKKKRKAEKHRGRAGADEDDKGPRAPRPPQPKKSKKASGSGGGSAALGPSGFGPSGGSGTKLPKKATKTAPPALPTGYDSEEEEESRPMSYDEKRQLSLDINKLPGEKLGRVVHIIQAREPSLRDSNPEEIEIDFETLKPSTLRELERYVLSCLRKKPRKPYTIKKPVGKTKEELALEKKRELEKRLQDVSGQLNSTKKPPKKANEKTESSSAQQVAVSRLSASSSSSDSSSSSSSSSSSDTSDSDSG

[4] = biological target: Bromodomain-containing protein 2 (Homo sapiens) (UniProt P25440); test: Binding affinity of recombinant His-tagged BRD2-BD2 (unknown origin) to histone H4Ac (1 to 21 residues) K5/8/12/Ac-Biotin-OH assessed as residual binding at 10 uM incubated for 30 mins by alphascreen analysis relative to control
[5] = biological target: Bromodomain-containing protein 3 (Homo sapiens) (UniProt Q15059); test: Binding affinity of recombinant His-tagged BRD3-BD1 (unknown origin) to histone H4Ac (1 to 21 residues) K5/8/12/Ac-Biotin-OH assessed as residual binding at 10 uM incubated for 30 mins by alphascreen analysis relative to control
Bromodomain-containing protein 3 (Homo sapiens), sequence (Q15059 2-726 limits assumed): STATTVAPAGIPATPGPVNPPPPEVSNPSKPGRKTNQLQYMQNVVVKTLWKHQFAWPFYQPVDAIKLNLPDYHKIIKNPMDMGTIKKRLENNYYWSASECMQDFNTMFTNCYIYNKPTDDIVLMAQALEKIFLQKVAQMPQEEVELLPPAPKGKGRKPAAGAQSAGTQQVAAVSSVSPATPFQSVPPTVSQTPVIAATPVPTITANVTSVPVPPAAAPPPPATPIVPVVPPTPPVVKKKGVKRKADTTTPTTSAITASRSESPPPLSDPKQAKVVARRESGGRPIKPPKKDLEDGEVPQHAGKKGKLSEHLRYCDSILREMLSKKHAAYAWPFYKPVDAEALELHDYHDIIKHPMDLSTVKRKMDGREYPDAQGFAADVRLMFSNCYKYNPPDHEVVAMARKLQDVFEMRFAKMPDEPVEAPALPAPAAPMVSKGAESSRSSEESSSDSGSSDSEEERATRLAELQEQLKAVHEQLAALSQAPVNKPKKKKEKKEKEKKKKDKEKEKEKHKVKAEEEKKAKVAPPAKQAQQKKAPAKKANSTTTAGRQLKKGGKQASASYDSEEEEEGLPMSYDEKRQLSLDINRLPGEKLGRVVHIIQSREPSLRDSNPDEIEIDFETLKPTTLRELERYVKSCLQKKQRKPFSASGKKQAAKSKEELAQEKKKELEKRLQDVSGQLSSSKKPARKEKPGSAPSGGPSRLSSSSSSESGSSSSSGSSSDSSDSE

[6] = biological target: Bromodomain-containing protein 3 (Homo sapiens) (UniProt Q15059); test: Binding affinity of recombinant His-tagged BRD3-BD2 (unknown origin) to histone H4Ac (1 to 21 residues) K5/8/12/Ac-Biotin-OH assessed as residual binding at 10 uM incubated for 30 mins by alphascreen analysis relative to control
[7] = biological target: Bromodomain-containing protein 4 (Homo sapiens) (UniProt O60885); test: Binding affinity of recombinant His-tagged BRD4-BD1 (unknown origin) to histone H4Ac (1 to 21 residues) K5/8/12/Ac-Biotin-OH assessed as residual binding at 10 uM incubated for 30 mins by alphascreen analysis relative to control
[8] = biological target: Bromodomain-containing protein 4 (Homo sapiens) (UniProt O60885); test: Binding affinity of recombinant His-tagged BRD4-BD2 (unknown origin) to histone H4Ac (1 to 21 residues) K5/8/12/Ac-Biotin-OH assessed as residual binding at 10 uM incubated for 30 mins by alphascreen analysis relative to control
[9] = biological target: Bromodomain testis-specific protein (Homo sapiens) (UniProt Q58F21); test: Binding affinity of recombinant His-tagged BRDT-BD1 (unknown origin) to histone H4Ac (1 to 21 residues) K5/8/12/Ac-Biotin-OH assessed as residual binding at 10 uM incubated for 30 mins by alphascreen analysis relative to control
[10] = biological target: Bromodomain adjacent to zinc finger domain protein 2B (Homo sapiens) (UniProt Q9UIF8); test: Binding affinity of recombinant His-tagged BAZ2B (unknown origin) to histone H3 (1 to 21 residues) K9/14Ac-Biotin-OH assessed as residual binding at 10 uM incubated for 30 mins by alphascreen analysis relative to control
Bromodomain adjacent to zinc finger domain protein 2B (Homo sapiens), sequence (Q9UIF8 whole entry, the tested form may be a part): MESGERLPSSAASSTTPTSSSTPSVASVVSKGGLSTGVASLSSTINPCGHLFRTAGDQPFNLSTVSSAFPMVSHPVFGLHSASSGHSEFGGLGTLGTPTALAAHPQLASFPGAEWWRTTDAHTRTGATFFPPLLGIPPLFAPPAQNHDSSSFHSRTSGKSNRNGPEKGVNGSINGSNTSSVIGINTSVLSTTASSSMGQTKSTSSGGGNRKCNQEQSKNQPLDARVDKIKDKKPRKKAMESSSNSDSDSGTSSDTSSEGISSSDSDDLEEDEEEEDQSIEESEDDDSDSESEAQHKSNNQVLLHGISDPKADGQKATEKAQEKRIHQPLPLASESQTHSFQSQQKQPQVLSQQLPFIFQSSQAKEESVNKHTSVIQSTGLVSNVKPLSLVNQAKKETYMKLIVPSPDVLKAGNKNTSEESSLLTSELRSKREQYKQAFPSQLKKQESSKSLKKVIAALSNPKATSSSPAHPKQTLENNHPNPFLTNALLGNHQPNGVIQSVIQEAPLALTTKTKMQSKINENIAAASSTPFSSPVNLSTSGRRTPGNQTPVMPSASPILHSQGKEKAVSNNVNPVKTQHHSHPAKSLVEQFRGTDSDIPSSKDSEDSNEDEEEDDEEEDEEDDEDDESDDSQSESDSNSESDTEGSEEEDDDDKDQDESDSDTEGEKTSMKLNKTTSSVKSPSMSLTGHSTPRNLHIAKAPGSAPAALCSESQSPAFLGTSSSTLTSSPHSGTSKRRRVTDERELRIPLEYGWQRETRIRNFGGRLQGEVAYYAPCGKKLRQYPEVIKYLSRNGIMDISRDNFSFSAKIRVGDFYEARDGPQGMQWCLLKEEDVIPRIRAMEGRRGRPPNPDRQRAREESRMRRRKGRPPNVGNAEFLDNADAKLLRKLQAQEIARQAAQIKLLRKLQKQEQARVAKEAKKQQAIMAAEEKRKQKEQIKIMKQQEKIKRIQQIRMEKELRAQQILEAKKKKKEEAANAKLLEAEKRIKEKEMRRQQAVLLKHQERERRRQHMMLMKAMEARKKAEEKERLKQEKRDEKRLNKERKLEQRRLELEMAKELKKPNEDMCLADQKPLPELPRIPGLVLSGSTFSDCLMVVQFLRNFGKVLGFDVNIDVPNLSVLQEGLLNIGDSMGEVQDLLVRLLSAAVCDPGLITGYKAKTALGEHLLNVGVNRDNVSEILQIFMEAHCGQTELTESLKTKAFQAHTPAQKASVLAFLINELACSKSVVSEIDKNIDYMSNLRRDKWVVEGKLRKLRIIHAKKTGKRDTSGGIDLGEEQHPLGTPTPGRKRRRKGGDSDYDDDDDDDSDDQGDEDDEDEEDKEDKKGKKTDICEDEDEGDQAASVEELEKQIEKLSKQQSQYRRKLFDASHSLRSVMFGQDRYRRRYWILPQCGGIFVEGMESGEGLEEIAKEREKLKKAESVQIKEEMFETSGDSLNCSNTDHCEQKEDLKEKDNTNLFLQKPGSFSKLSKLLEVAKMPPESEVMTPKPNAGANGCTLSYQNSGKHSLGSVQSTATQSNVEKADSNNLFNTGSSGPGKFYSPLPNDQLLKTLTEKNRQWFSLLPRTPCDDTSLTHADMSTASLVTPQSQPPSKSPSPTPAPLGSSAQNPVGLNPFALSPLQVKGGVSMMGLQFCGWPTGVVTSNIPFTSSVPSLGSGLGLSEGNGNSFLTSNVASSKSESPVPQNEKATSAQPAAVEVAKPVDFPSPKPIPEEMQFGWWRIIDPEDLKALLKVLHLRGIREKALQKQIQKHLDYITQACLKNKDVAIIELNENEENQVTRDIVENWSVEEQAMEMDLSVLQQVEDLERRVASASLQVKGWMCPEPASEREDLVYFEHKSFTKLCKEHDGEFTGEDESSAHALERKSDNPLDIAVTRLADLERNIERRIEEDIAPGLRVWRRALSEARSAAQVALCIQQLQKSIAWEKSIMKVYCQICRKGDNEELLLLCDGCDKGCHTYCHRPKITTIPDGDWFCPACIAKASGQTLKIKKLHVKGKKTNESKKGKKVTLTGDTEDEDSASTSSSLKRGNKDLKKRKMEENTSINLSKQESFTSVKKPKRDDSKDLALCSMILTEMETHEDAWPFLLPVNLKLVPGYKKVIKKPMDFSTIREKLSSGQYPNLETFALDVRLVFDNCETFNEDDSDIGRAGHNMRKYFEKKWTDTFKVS

[11] = biological target: CREB-binding protein (Homo sapiens) (UniProt Q92793); test: Binding affinity of recombinant His-tagged CREBBP (unknown origin) to histone H4Ac (1 to 21 residues) K5/8/12/Ac-Biotin-OH assessed as residual binding at 10 uM incubated for 30 mins by alphascreen analysis relative to control
Jurkat = test: Cytotoxicity against human Jurkat cells assessed as cell viability measured after 24 hrs by MTT assay; type: functional, cell-based
MCF7 = test: Cytotoxicity against human MCF7 cells assessed as cell viability measured after 24 hrs by MTT assay; type: functional, cell-based; settings: MCF7, 24 h
A-375 = test: Cytotoxicity against human A-375 cells assessed as cell viability measured after 24 hrs by MTT assay; type: functional, cell-based; settings: A-375, 24 h
Caco-2 = test: Cytotoxicity against human Caco-2 cells assessed as cell viability measured after 24 hrs by MTT assay; type: functional, cell-based; settings: Caco-2, 24 h
HaCaT = test: Cytotoxicity against human HaCaT cells assessed as cell viability measured after 24 hrs by MTT assay; type: functional, cell-based
[12] = Cytotoxicity against human erythrocytes assessed as cell viability measured after 24 hrs by MTT assay; type: toxicity, cell-based, Erythrocyte

Compound: CCc1nn(C)c(=O)n1-c1cccc(C(F)(F)F)c1
Activity [1]: 76.5%

Compound: CCc1nn(C)c(=O)n1-c1ccc(F)c(Cl)c1
Activity [1]: 24.3%
IC50 [2]: 1.86 µM
Activity [3]: > 100%
Activity [4]: > 100%
Activity [5]: > 100%
Activity [6]: 98.3%
Activity [7]: 99.2%
Activity [8]: > 100%
Activity [9]: 98.2%
Activity [10]: > 100%
Activity [11]: > 100%
IC50 (Jurkat): 225 µM
IC50 (MCF7): > 500 µM
IC50 (A-375): 500 µM
IC50 (Caco-2): > 500 µM
IC50 (HaCaT): > 500 µM
IC50 at 24 h [12]: > 500 µM

Compound: CCc1nn(C)c(=O)n1-c1ccc(C)c(C)c1
Activity [1]: 85.1%

Compound: Cc1nn(C)c(=O)n1C1CCCCC1
Activity [1]: 77.9%

Compound: CCc1nn(C)c(=O)n1-c1ccc(OC)c(OC)c1
Activity [1]: 38.1%
IC50 [2]: 4.13 µM
Activity [3]: > 100%
Activity [4]: 96.7%
Activity [5]: 97.3%
Activity [6]: 97.7%
Activity [7]: > 100%
Activity [8]: 89.4%
Activity [9]: 95.6%
Activity [10]: > 100%
Activity [11]: > 100%
IC50 (Jurkat): 420 µM
IC50 (MCF7): > 500 µM
IC50 (A-375): 480 µM
IC50 (Caco-2): > 500 µM
IC50 (HaCaT): > 500 µM
IC50 at 24 h [12]: > 500 µM

Compound: CCn1nc(C)n(-c2ccc(OC)c(OC)c2)c1=O
Activity [1]: 50.8%
IC50 [2]: 7.62 µM
Activity [3]: > 100%
Activity [4]: > 100%
Activity [5]: 97.8%
Activity [6]: > 100%
Activity [7]: 99.2%
Activity [8]: > 100%
Activity [9]: 97.9%
Activity [10]: > 100%
Activity [11]: > 100%
IC50 (Jurkat): 315 µM
IC50 (MCF7): 360 µM
IC50 (A-375): 400 µM
IC50 (Caco-2): 300 µM
IC50 (HaCaT): > 500 µM
IC50 at 24 h [12]: > 500 µM

Compound: CCc1nn(CC)c(=O)n1-c1ccc(F)c(Cl)c1
Activity [1]: 86.6%

Compound: COc1ccc(-n2c(C)nnc2O)cc1OC
Activity [1]: 73.6%

Compound: CCc1ccc(-n2c(CC)n[nH]c2=O)cc1
Activity [1]: 97.1%

Compound: CCc1n[nH]c(=O)n1-c1ccc(OC)c(OC)c1
Activity [1]: 96.9%

Compound: Cc1cccc(-n2c(C)nn(C)c2=O)c1
Activity [1]: 86.7%

Compound: Cc1nn(C)c(=O)n1-c1ccc2c(c1)OCO2
Activity [1]: 58.8%
IC50 [2]: 11.1 µM
Activity [3]: > 100%
Activity [4]: 94.4%
Activity [5]: 97.3%
Activity [6]: 94.9%
Activity [7]: > 100%
Activity [8]: 99.3%
Activity [9]: 92.5%
Activity [10]: 92.8%
Activity [11]: > 100%
IC50 (Jurkat): 290 µM
IC50 (MCF7): 400 µM
IC50 (A-375): 400 µM
IC50 (Caco-2): 370 µM
IC50 (HaCaT): > 500 µM
IC50 at 24 h [12]: > 500 µM

Compound: COc1ccc(-n2c(C)nn(C)c2=O)cc1OC
Activity [1]: 28.1%
IC50 [2]: 0.35 µM
Activity [3]: 96.5%
Activity [4]: > 100%
Activity [5]: > 100%
Activity [6]: > 100%
Activity [7]: > 100%
Activity [8]: 94.7%
Activity [9]: > 100%
Activity [10]: > 100%
Activity [11]: 96.3%
IC50 (Jurkat): 110 µM
IC50 (MCF7): > 500 µM
IC50 (A-375): 450 µM
IC50 (Caco-2): 300 µM
IC50 (HaCaT): > 500 µM
IC50 at 24 h [12]: > 500 µM

Compound: CCc1n[nH]c(=O)n1-c1ccc2c(c1)OCO2
Activity [1]: 84.6%

Compound: CCc1nn(CC)c(=O)n1-c1cccc(C(F)(F)F)c1
Activity [1]: 39.4%
IC50 [2]: 2.49 µM
Activity [3]: 99%
Activity [4]: > 100%
Activity [5]: > 100%
Activity [6]: 97.4%
Activity [7]: 97.7%
Activity [8]: > 100%
Activity [9]: 98.3%
Activity [10]: > 100%
Activity [11]: > 100%
IC50 (Jurkat): 270 µM
IC50 (MCF7): 490 µM
IC50 (A-375): > 500 µM
IC50 (Caco-2): > 500 µM
IC50 (HaCaT): > 500 µM
IC50 at 24 h [12]: > 500 µM

Compound: CCc1nn(CC)c(=O)n1-c1ccc2c(c1)OCO2
Activity [1]: 91.2%

Compound: Cc1nn(C)c(=O)n1-c1ccc(C(C)(C)C)cc1
Activity [1]: 95.7%

Compound: CCc1nn(CC)c(=O)n1-c1ccc(OC)c(OC)c1
Activity [1]: > 100%

Compound: CCn1nc(C)n(-c2ccc3c(c2)OCO3)c1=O
Activity [1]: 35.6%
IC50 [2]: 5.44 µM
Activity [3]: > 100%
Activity [4]: > 100%
Activity [5]: 74.8%
Activity [6]: 99.9%
Activity [7]: 96.2%
Activity [8]: 99.2%
Activity [9]: > 100%
Activity [10]: 97.5%
Activity [11]: > 100%
IC50 (Jurkat): > 500 µM
IC50 (MCF7): > 500 µM
IC50 (A-375): > 500 µM
IC50 (Caco-2): > 500 µM
IC50 (HaCaT): > 500 µM
IC50 at 24 h [12]: > 500 µM

Compound: Cc1nnc(O)n1-c1ccc(C(C)(C)C)cc1
Activity [1]: > 100%

Compound: CCc1nn(C)c(=O)n1C1CCCCC1
Activity [1]: 64.3%

Now from value to compound, other results behind:

Activity [1]: 91.8%
Compound: CCc1n[nH]c(=O)n1-c1ccc(Cl)c(F)c1

Activity [1]: 96.1%
Compound: CCc1n[nH]c(=O)n1-c1cccc(C(F)(F)F)c1

Activity [1]: > 100%
Compound: Cc1cccc(-n2c(C)n[nH]c2=O)c1

Activity [1]: > 100%
Compound: Cc1ccc(-n2c(C)n[nH]c2=O)cc1

Activity [1]: 97.8%
Compound: Cc1n[nH]c(=O)n1-c1ccc(F)c(C(F)(F)F)c1

Activity [1]: 94.9%
Compound: CCc1n[nH]c(=O)n1-c1ccc(F)c(C)c1

Activity [1]: 97.2%
Compound: CCc1n[nH]c(=O)n1-c1ccc(C)c(C)c1

Activity [1]: 97.5%
Compound: CCc1n[nH]c(=O)n1-c1ccc(C)c(Cl)c1

Activity [1]: 85.3%
Compound: Cc1nn(C)c(=O)n1-c1ccc(F)c(C(F)(F)F)c1

Activity [1]: > 100%
Compound: Cc1cc(-n2c(C)n[nH]c2=O)ccc1F

Activity [1]: 41.2%
IC50 [2]: 4.01 µM
Activity [3]: 98.2%
Activity [4]: > 100%
Activity [5]: > 100%
Activity [6]: 93.3%
Activity [7]: 99%
Activity [8]: > 100%
Activity [9]: 98.3%
Activity [10]: > 100%
Activity [11]: > 100%
Compound: CCn1nc(C)n(-c2ccc(F)c(Cl)c2)c1=O
IC50 (Jurkat): > 500 µM
IC50 (MCF7): > 500 µM
IC50 (A-375): 450 µM
IC50 (Caco-2): > 500 µM
IC50 (HaCaT): > 500 µM
IC50 at 24 h [12]: > 500 µM
